Laboratory results as given in PubChem BioAssay (NCI).
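Where inhibition never reached the appropriate level, the endpoint shown equals the highest concentration tested. Otherwise, values were interpolated linearly from a five-concentration, 48-hour dose response in 96-well plates. GI50 is the concentration that inhibits growth by half. Definition used: TGI = concentration required for complete inhibition of growth.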

Experiments:
Experiment in all cases: inhibition of tumour cell growth, NCI panel, 48 h
ACHN renal = test system: ACHN renal
HL-60(TB) leukemia = test system: HL-60(TB) leukemia
HT29 colon = test system: HT29 colon
LOX IMVI melanoma = test system: LOX IMVI melanoma
MOLT-4 leukemia = test system: MOLT-4 leukemia
NCI-H522 lung = test system: NCI-H522 lung
PC-3 prostate = test system: PC-3 prostate
U251 CNS = test system: U251 CNS

With `COc1ccc2nc3cc(Cl)ccc3c(Nc3cc(C(C)C)c(O)cc3C)c2c1` the GI50 (ACHN renal) was 2.22 µM, the TGI (ACHN renal) was 5.08 µM and the GI50 (HL-60(TB) leukemia) was 1.31 µM. For the same molecule, the GI50 (HT29 colon) was 2.31 µM, the TGI (HT29 colon) was 6.07 µM and the GI50 (LOX IMVI melanoma) was 1.79 µM. For the same molecule, the TGI (LOX IMVI melanoma) was 3.3 µM, the GI50 (MOLT-4 leukemia) was 1.38 µM and the TGI (MOLT-4 leukemia) was 4.36 µM. For the same molecule, the GI50 (NCI-H522 lung) was 1.79 µM, the TGI (NCI-H522 lung) was 3.65 µM and the GI50 (PC-3 prostate) was 1.7 µM. The TGI (PC-3 prostate) was 4.79 µM, the GI50 (U251 CNS) was 1.79 µM and the TGI (U251 CNS) was 3.53 µM.
Molecule `O=C1NC(=O)C(c2c[nH]c3ccccc23)=C1c1ccccc1` has a GI50 (ACHN renal) greater than 25 µM, a TGI (ACHN renal) greater than 25 µM and a GI50 (HL-60(TB) leukemia) greater than 25 µM. It also gave a TGI (HL-60(TB) leukemia) greater than 25 µM, a GI50 (HT29 colon) greater than 25 µM and a TGI (HT29 colon) greater than 25 µM. For the same molecule, the GI50 (LOX IMVI melanoma) was 23.3 µM, the TGI (LOX IMVI melanoma) was greater than 25 µM and the GI50 (MOLT-4 leukemia) was greater than 25 µM. It also gave a TGI (MOLT-4 leukemia) greater than 25 µM, a GI50 (NCI-H522 lung) greater than 25 µM and a TGI (NCI-H522 lung) greater than 25 µM. The GI50 (PC-3 prostate) was greater than 25 µM, the TGI (PC-3 prostate) was greater than 25 µM and the GI50 (U251 CNS) was greater than 25 µM. It also gave a TGI (U251 CNS) greater than 25 µM.
In the case of `COc1cccc(/C=C\c2ccnc3ccccc23)c1`, the TGI (ACHN renal) is reported as greater than 10 µM, the TGI (HL-60(TB) leukemia) is reported as greater than 10 µM and the TGI (HT29 colon) is reported as greater than 10 µM. For the same molecule, the TGI (LOX IMVI melanoma) was greater than 10 µM, the TGI (MOLT-4 leukemia) was greater than 10 µM and the TGI (NCI-H522 lung) was greater than 10 µM. For the same molecule, the TGI (PC-3 prostate) was greater than 10 µM and the TGI (U251 CNS) was greater than 10 µM.
In the case of `FC(F)(F)c1ccc(NCc2nc3ccccc3[nH]2)cc1`, the GI50 (ACHN renal) is reported as 34.5 µM, the TGI (ACHN renal) is reported as greater than 100 µM and the GI50 (HL-60(TB) leukemia) is reported as 12.1 µM. The TGI (HL-60(TB) leukemia) was 38.5 µM, the GI50 (HT29 colon) was 27.9 µM and the TGI (HT29 colon) was 81.3 µM. For the same molecule, the GI50 (LOX IMVI melanoma) was 23.2 µM, the TGI (LOX IMVI melanoma) was greater than 100 µM and the GI50 (MOLT-4 leukemia) was 21.6 µM. It also gave a TGI (MOLT-4 leukemia) of 63 µM, a GI50 (NCI-H522 lung) of 24.7 µM and a TGI (NCI-H522 lung) of 95.3 µM. For the same molecule, the GI50 (PC-3 prostate) was 18.8 µM, the TGI (PC-3 prostate) was 75.8 µM and the GI50 (U251 CNS) was 27.5 µM. For the same molecule, the TGI (U251 CNS) was greater than 100 µM.
For `N=C1/C(=C2\Nc3ccccc3S2)CC(=O)N1c1ccc(SC(F)F)cc1`, the GI50 (ACHN renal) was 6.98 µM, the TGI (ACHN renal) was greater than 100 µM and the GI50 (HL-60(TB) leukemia) was 5.02 µM. It also gave a TGI (HL-60(TB) leukemia) greater than 100 µM, a GI50 (HT29 colon) of 1.99 µM and a TGI (HT29 colon) greater than 100 µM. The GI50 (LOX IMVI melanoma) was 2.21 µM, the TGI (LOX IMVI melanoma) was greater than 100 µM and the GI50 (MOLT-4 leukemia) was 1.42 µM. The TGI (MOLT-4 leukemia) was greater than 100 µM, the GI50 (NCI-H522 lung) was 17.3 µM and the TGI (NCI-H522 lung) was greater than 100 µM. It also gave a GI50 (PC-3 prostate) of 3.55 µM, a TGI (PC-3 prostate) of 93.5 µM and a GI50 (U251 CNS) of 2.74 µM. The TGI (U251 CNS) was 29.7 µM.
Work on `COc1ccc2c(c1)C(=O)c1c-2c(N2CCN(C(=O)CCNCCNCCO)CC2)nc2ccccc12` yielded a GI50 (ACHN renal) of 16 µM, a TGI (ACHN renal) of 30.8 µM and a GI50 (HL-60(TB) leukemia) of 10.3 µM. The TGI (HL-60(TB) leukemia) was 25.8 µM, the GI50 (HT29 colon) was 4.6 µM and the TGI (HT29 colon) was 16.7 µM. The GI50 (LOX IMVI melanoma) was 12.3 µM, the TGI (LOX IMVI melanoma) was 31.6 µM and the GI50 (MOLT-4 leukemia) was 5.05 µM. It also gave a TGI (MOLT-4 leukemia) of 22.9 µM, a GI50 (NCI-H522 lung) of 17.5 µM and a TGI (NCI-H522 lung) of 46.8 µM. For the same molecule, the GI50 (PC-3 prostate) was 13.2 µM, the TGI (PC-3 prostate) was 27.9 µM and the GI50 (U251 CNS) was 15.8 µM. The TGI (U251 CNS) was 33.8 µM.
Molecule `COC1=CC2CCN3Cc4cc5c(cc4C(C1O)C23)OCC5` (configuration not stated) has a GI50 (ACHN renal) of 0.306 µM, a TGI (ACHN renal) of 2.31 µM and a GI50 (HL-60(TB) leukemia) of 4.75 µM. For the same molecule, the TGI (HL-60(TB) leukemia) was greater than 25.7 µM, the GI50 (HT29 colon) was 0.97 µM and the TGI (HT29 colon) was 9.48 µM. The GI50 (LOX IMVI melanoma) was 0.587 µM, the TGI (LOX IMVI melanoma) was 3.18 µM and the GI50 (MOLT-4 leukemia) was 2.11 µM. The TGI (MOLT-4 leukemia) was greater than 100 µM, the GI50 (NCI-H522 lung) was 28 µM and the TGI (NCI-H522 lung) was greater than 100 µM. For the same molecule, the GI50 (PC-3 prostate) was 2.67 µM, the TGI (PC-3 prostate) was greater than 47 µM and the GI50 (U251 CNS) was 1.53 µM. For the same molecule, the TGI (U251 CNS) was 11.4 µM.
Molecule `N=C1C(c2nc3ccccc3s2)=C(O)CN1c1cc(Cl)cc(Cl)c1` has a GI50 (ACHN renal) greater than 100 µM, a TGI (ACHN renal) greater than 100 µM and a GI50 (HL-60(TB) leukemia) greater than 100 µM. It also gave a TGI (HL-60(TB) leukemia) greater than 100 µM, a GI50 (HT29 colon) greater than 100 µM and a TGI (HT29 colon) greater than 100 µM. It also gave a GI50 (LOX IMVI melanoma) greater than 100 µM, a TGI (LOX IMVI melanoma) greater than 100 µM and a GI50 (MOLT-4 leukemia) greater than 100 µM. For the same molecule, the TGI (MOLT-4 leukemia) was greater than 100 µM, the GI50 (PC-3 prostate) was greater than 100 µM and the TGI (PC-3 prostate) was greater than 100 µM. The GI50 (U251 CNS) was 32.3 µM and the TGI (U251 CNS) was greater than 100 µM.
